Measurements: EPA's ToxValDB 9.5 (doi:10.2903/j.efsa.2016.4419)

Key:
Rattus norvegicus = conditions: for LD50: acute, mortality
Daphnia pulex = conditions: chronic/long-term; duration: 21 days; reproduction
Pimephales promelas = conditions: chronic/long-term; duration: 36 days; clinical signs
Folsomia candida = conditions: chronic/long-term; duration: 14 days; reproduction
Mus musculus = conditions: reproduction developmental; organ weight
Apis mellifera = conditions: acute, mortality
Colinus virginianus = conditions: acute, oral, mortality
Oncorhynchus mykiss = conditions: acute; duration: 96 hours; mortality
Lepomis macrochirus = conditions: acute; duration: 96 hours; mortality

Row | Structure (SMILES) | LD50 (Rattus norvegicus) [mg/kg] | NOEC (Daphnia pulex) [mg/L] | NOEC (Pimephales promelas) [mg/L] | NOEC (Folsomia candida) [mg/kg] | NOAEL (Mus musculus) [mg/kg-day] | LD50 (Apis mellifera; dermal) [µg/piece] | LD50 (Apis mellifera; oral, unspecified) [µg/piece] | LD50 (Rattus norvegicus; oral) [mg/kg] | NOEL (Rattus norvegicus; reproduction developmental, organ weight) [mg/kg-day] | LC50 (Colinus virginianus; diet) [mg/kg] | LD50 (Colinus virginianus) [mg/kg] | LC50 (Oncorhynchus mykiss) [µg/mL] | LC50 (Tagia sp.; acute, mortality) [mg/kg] | NOEC (Tagia sp.; chronic/long-term, reproduction) [mg/kg] | NOEL (Anas platyrhynchos; reproductive) [mg/kg-day] | LC50 (Anas platyrhynchos; short-term, oral, feed, mortality) [mg/kg] | LC50 (Lepomis macrochirus) [µg/mL]
1 | CS(=O)(=O)c1ccc(C(=O)O)c(N)c1 [2-Amino-4-(methylsulfonyl)benzoic acid] | > 5000 |  |  |  |  |  |  |  |  |  |  |  |  |  |  |  | 
2 | CS(=O)(=O)c1ccc(C(=O)C2C(=O)CCCC2=O)c([N+](=O)[O-])c1 [Mesotrione] |  | 180 | 12.5 | 50.5 | 2 | 52.5 | > 11 | > 5000 | 0.3 | > 5200 | > 2000 | > 120 | > 2000 | 10.8 | 20.6 | > 5200 | > 120
